Test results published in US8802597B2, “Herbicidal pyrimidines” (E I du Pont de Nemours and Company, priority 2003, dated 2014).

Experiments:
Format in all cases: in vivo
[1] = system: barnyardgrass (Echinochloa crus-galli); experiment: Test A pre/postemergence
Method in brief: (§1)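 Soil: loam blended with sand. Formulation: non-phytotoxic solvent mixture with surfactant. Timing: preemergence soil spray plus concurrent postemergence spray (plants 2–10 cm, 1–2 leaves). Readout: visual injury versus untreated controls at ~10 days, 0–100.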

[2] = system: morningglory (Ipomoea spp.); experiment: Test A pre/postemergence
Method in brief: as §1

[3] = system: giant foxtail (Setaria faberi); experiment: Test A pre/postemergence
Method in brief: as §1

[4] = system: crabgrass (Digitaria sanguinalis); experiment: Test A pre/postemergence
Method in brief: as §1

[5] = system: velvetleaf (Abutilon theophrasti); experiment: Test A pre/postemergence
Method in brief: as §1

[6] = system: redroot pigweed (Amaranthus retroflexus); experiment: Test A pre/postemergence
Method in brief: as §1

[7] = system: barnyardgrass (Echinochloa crus-galli); experiment: Test E flooded paddy water application; settings: Flood, 21 days, scale 0 to 100 (0 no effect, 100 complete control)
Text: (§2) Three plastic pots (ca. 16-cm diameter) per rate were partially filled with sterilized Tama silt loam soil comprising a 35:50:15 ratio of sand, silt and clay and 2.6% organic matter. Separate plantings for each of the three pots were as follows. Seeds from the U.S. of ducksalad (Heteranthera limosa), smallflower umbrella sedge (Cyperus difformis) and purple redstem (Ammannia coccinea), were planted into one 16-cm pot for each rate. Seeds from the U.S. of rice flatsedge (Cyperus iria), bearded (brdd.) sprangletop (Leptochloa fusca ssp. fascicularis), one stand of 9 or 10 water seeded rice seedlings (Oryza sativa cv. ‘Japonica-M202’), and one stand of 6 transplanted rice seedlings (Oryza sativa cv. ‘Japonica-M202’) were planted into one 16-cm pot for each rate. Seeds from the U.S. of barnyardgrass (Echinochloa crus-galli), late watergrass (Echinochloa oryzicola), early watergrass (Echinochloa oryzoides) and junglerice (Echinochloa colona) were planted into one 16-cm pot for each rate. Plantings were sequential so that crop and weed species were at the 2.0 to 2.5-leaf stage at time of treatment.
(§3) Potted plants were grown in a greenhouse with day/night temperature settings of 29.5/26.7° C., and supplemental balanced lighting was provided to maintain a 16-hour photoperiod. Test pots were maintained in the greenhouse until test completion.
(§4) At time of treatment, test pots were flooded to 3 cm above the soil surface, treated by application of test compounds directly to the paddy water, and then maintained at that water depth for the duration of the test. Effects of treatments on rice and weeds were visually evaluated by comparison to untreated controls after 21 days. Plant response ratings, summarized in Table E, are based on a scale of 0 to 100 where 0 is no effect and 100 is complete control. A dash (-) response means no test result.

[8] = system: smallflower umbrella sedge (Cyperus difformis); experiment: Test E flooded paddy water application; settings: Flood, 21 days, scale 0 to 100 (0 no effect, 100 complete control)
Text: as §2, §3, §4

[9] = system: rice flatsedge (Cyperus iria); experiment: Test E flooded paddy water application; settings: Flood, 21 days, scale 0 to 100 (0 no effect, 100 complete control)
Text: as §2, §3, §4

[10] = system: early watergrass (Echinochloa oryzoides); experiment: Test E flooded paddy water application; settings: Flood, 21 days, scale 0 to 100 (0 no effect, 100 complete control)
Text: as §2, §3, §4

[11] = system: late watergrass (Echinochloa oryzicola); experiment: Test E flooded paddy water application; settings: Flood, 21 days, scale 0 to 100 (0 no effect, 100 complete control)
Text: as §2, §3, §4

[12] = system: water seeded rice seedlings (Oryza sativa cv. ‘Japonica-M202’); experiment: Test E flooded paddy water application; settings: Flood, 21 days, scale 0 to 100 (0 no effect, 100 complete control)
Text: as §2, §3, §4

[13] = system: bearded (brdd.) sprangletop (Leptochloa fusca ssp. fascicularis); experiment: Test E flooded paddy water application; settings: Flood, 21 days, scale 0 to 100 (0 no effect, 100 complete control)
Text: as §2, §3, §4

[14] = system: junglerice (Echinochloa colona); experiment: Test E flooded paddy water application; settings: Flood, 21 days, scale 0 to 100 (0 no effect, 100 complete control)
Text: as §2, §3, §4

[15] = system: purple redstem (Ammannia coccinea); experiment: Test E flooded paddy water application; settings: Flood, 21 days, scale 0 to 100 (0 no effect, 100 complete control)
Text: as §2, §3, §4

[16] = system: ducksalad (Heteranthera limosa); experiment: Test E flooded paddy water application; settings: Flood, 21 days, scale 0 to 100 (0 no effect, 100 complete control)
Text: as §2, §3, §4

[17] = system: transplanted rice seedlings (Oryza sativa cv. ‘Japonica-M202’); experiment: Test E flooded paddy water application; settings: Flood, 21 days, scale 0 to 100 (0 no effect, 100 complete control)
Text: as §2, §3, §4

[18] = Postemergence, 125 g ai/ha, 0 to 100 scale (0 no effect, 100 complete control)
[19] = Postemergence, 500 g ai/ha, 0 to 100 scale (0 no effect, 100 complete control)
[20] = Preemergence, 125 g ai/ha, 0 to 100 scale where 0 is no effect and 100 is complete control, approximately ten days
[21] = Preemergence, 500 g ai/ha, 0 to 100 scale where 0 is no effect and 100 is complete control, approximately ten days

SMILES: CCOC(=O)c1nc(-c2ccc(Cl)cc2F)nc(N)c1Br [Compound 69]
- Plant response rating, Barnyardgrass [1, 18]: 0
- Plant response rating, Barnyardgrass [1, 19]: 5
- Plant response rating, Barnyardgrass [1, 20]: 0
- Plant response rating, Barnyardgrass [1, 21]: 15
- Plant response rating, Morningglory [2, 18]: 75
- Plant response rating, Morningglory [2, 19]: 90
- Plant response rating, Morningglory [2, 20]: 0
- Plant response rating, Morningglory [2, 21]: 0
- Plant response rating, Foxtail, Giant [3, 18]: 0
- Plant response rating, Foxtail, Giant [3, 19]: 55
- Plant response rating, Foxtail, Giant [3, 20]: 10
- Plant response rating, Foxtail, Giant [3, 21]: 50
- Plant response rating, Crabgrass [4, 18]: 20
- Plant response rating, Crabgrass [4, 19]: 40
- Plant response rating, Crabgrass [4, 20]: 50
- Plant response rating, Crabgrass [4, 21]: 75
- Plant response rating, Velvetleaf [5, 18]: 85
- Plant response rating, Velvetleaf [5, 19]: 90
- Plant response rating, Velvetleaf [5, 20]: 35
- Plant response rating, Velvetleaf [5, 21]: 65
- Plant response rating, Pigweed [6, 18]: 90
- Plant response rating, Pigweed [6, 19]: 90
- Plant response rating, Pigweed [6, 20]: 65
- Plant response rating, Pigweed [6, 21]: 85
- Barnyardgrass plant response rating ([7]; 32 g ai/ha): 0
- Barnyardgrass plant response rating ([7]; 64 g ai/ha): 0
- Barnyardgrass plant response rating ([7]; 125 g ai/ha): 0
- Plant response rating, Barnyardgrass ([7]; 16 g ai/ha): 0
- Sedge, Umbrella plant response rating ([8]; 32 g ai/ha): 0
- Sedge, Umbrella plant response rating ([8]; 64 g ai/ha): 30
- Sedge, Umbrella plant response rating ([8]; 125 g ai/ha): 90
- Sedge, Umbrella plant response rating ([8]; 250 g ai/ha): 100
- Plant response rating, Sedge, Umbrella ([8]; 16 g ai/ha): 0
- Flatsedge, Rice plant response rating ([9]; 32 g ai/ha): 70
- Flatsedge, Rice plant response rating ([9]; 64 g ai/ha): 100
- Flatsedge, Rice plant response rating ([9]; 125 g ai/ha): 100
- Flatsedge, Rice plant response rating ([9]; 250 g ai/ha): 100
- Plant response rating, Flatsedge, Rice ([9]; 16 g ai/ha): 65
- Watergrass, Early plant response rating ([10]; 32 g ai/ha): 0
- Watergrass, Early plant response rating ([10]; 64 g ai/ha): 0
- Watergrass, Early plant response rating ([10]; 125 g ai/ha): 0
- Watergrass, Early plant response rating ([10]; 250 g ai/ha): 0
- Plant response rating, Watergrass, Early ([10]; 16 g ai/ha): 0
- Watergrass, Late plant response rating ([11]; 32 g ai/ha): 0
- Watergrass, Late plant response rating ([11]; 64 g ai/ha): 0
- Watergrass, Late plant response rating ([11]; 125 g ai/ha): 0
- Watergrass, Late plant response rating ([11]; 250 g ai/ha): 0
- Plant response rating, Watergrass, Late ([11]; 16 g ai/ha): 0
- Rice, Water Seeded plant response rating ([12]; 32 g ai/ha): 0
- Rice, Water Seeded plant response rating ([12]; 64 g ai/ha): 0
- Rice, Water Seeded plant response rating ([12]; 125 g ai/ha): 0
- Rice, Water Seeded plant response rating ([12]; 250 g ai/ha): 0
- Plant response rating, Rice, Water Seeded ([12]; 16 g ai/ha): 0
- Sprangletop, Brdd. plant response rating ([13]; 32 g ai/ha): 0
- Sprangletop, Brdd. plant response rating ([13]; 64 g ai/ha): 0
- Sprangletop, Brdd. plant response rating ([13]; 125 g ai/ha): 0
- Sprangletop, Brdd. plant response rating ([13]; 250 g ai/ha): 0
- Plant response rating, Sprangletop, Brdd. ([13]; 16 g ai/ha): 0
- Junglerice plant response rating ([14]; 32 g ai/ha): 0
- Junglerice plant response rating ([14]; 64 g ai/ha): 0
- Junglerice plant response rating ([14]; 125 g ai/ha): 0
- Junglerice plant response rating ([14]; 250 g ai/ha): 0
- Plant response rating, Junglerice ([14]; 16 g ai/ha): 0
- Redstem plant response rating ([15]; 32 g ai/ha): 0
- Redstem plant response rating ([15]; 64 g ai/ha): 0
- Redstem plant response rating ([15]; 125 g ai/ha): 0
- Redstem plant response rating ([15]; 250 g ai/ha): 30
- Plant response rating, Redstem ([15]; 16 g ai/ha): 0
- Ducksalad plant response rating ([16]; 32 g ai/ha): 100
- Ducksalad plant response rating ([16]; 64 g ai/ha): 100
- Ducksalad plant response rating ([16]; 125 g ai/ha): 100
- Ducksalad plant response rating ([16]; 250 g ai/ha): 100
- Plant response rating, Ducksalad ([16]; 16 g ai/ha): 95
- Rice, Transplanted plant response rating ([17]; 32 g ai/ha): 0
- Rice, Transplanted plant response rating ([17]; 64 g ai/ha): 0
- Rice, Transplanted plant response rating ([17]; 125 g ai/ha): 0
- Rice, Transplanted plant response rating ([17]; 250 g ai/ha): 0
- Plant response rating, Rice, Transplanted ([17]; 16 g ai/ha): 0
